Assay results reported in patent publication US20240423992A1, “BIOMARKERS FOR TREATING LIVER DISORDERS WITH THR-B AGONISTS AND RELATED USES” (Madrigal Pharmaceuticals, Inc., priority 2023, published 2024).

How the values were obtained:
[1] = tested on: adults with nonalcoholic fatty liver disease (NAFLD)/presumed nonalcoholic steatohepatitis (NASH); assay: 52-week Phase 3 trial (Example 1): hepatic fat by MRI-PDFF; assay type: in vivo, human
Description: (§1) A 52-week randomized, double-blind, placebo-controlled Phase 3 trial was conducted to evaluate the safety and effect of resmetirom, an oral, once-daily, liver-targeted thyroid hormone receptor-β selective agonist, on multiple biomarkers in adults with nonalcoholic fatty liver disease (NAFLD)/presumed nonalcoholic steatohepatitis (NASH). Patients were randomized to three double-blind arms (100 mg resmetirom, 80 mg resmetirom, or placebo) or one open-label arm (100 mg resmetirom). Common concomitant medications across the 4 arms were antidiabetes drugs (such as glucagon-like peptide-1 receptor agonists (GLP-1 RAs), metformin, pioglitazone, and sodium/glucose cotransporter-2 inhibitors (SGLT2i)) and drugs to manage dyslipidemia (statins).

[2] = tested on: adults with nonalcoholic fatty liver disease (NAFLD)/presumed nonalcoholic steatohepatitis (NASH); assay: 52-week Phase 3 trial (Example 1): liver volume, open-label arm; assay type: in vivo, human; conditions: for Liver volume, mean reduction from baseline: open-label 100 mg resmetirom arm
Description: as §1
Liver volume was evaluated in the open-label 100 mg resmetirom arm at Week 52. Liver volume was reduced from baseline by a mean of 21% and 23% following 16 and 52 weeks of resmetirom treatment, respectively (FIGS. 3A and 3B). […] Correcting hepatic fat reduction for reduced liver volume led to an average hepatic fat reduction of 61% in the open-label arm.

## CC(C)c1cc(Oc2c(Cl)cc(-n3nc(C#N)c(=O)[nH]c3=O)cc2Cl)n[nH]c1=O [Resmetirom, 2-[3,5-dichloro-4-[(6-oxo-5-propan-2-yl-1H-pyridazin-3-yl)oxy]phenyl]-3,5-dioxo-1,2,4-triazine-6-carbonitrile]
[1]; 80 mg resmetirom, in general
  hepatic fat reduction, 80 mg compared with 100 mg: less effective than 100 mg resmetirom
[1]; Week 52, all key patient subgroups
  hepatic fat (MRI-PDFF), change from baseline: reduced hepatic fat from baseline
[1]; weight gain ≥5% or <120% increase in SHBG
  hepatic fat reduction by subgroup: lower hepatic fat reduction
[1]; weight loss ≥5% or ≥120% increase from baseline in SHBG
  hepatic fat reduction by subgroup: greater reduction in hepatic fat
[2]; all key patient subgroups of the OL arm
  Liver volume in patient subgroups: reductions in liver volume were observed
[2]; 16 weeks
  Liver volume, mean reduction from baseline: 21%
[2]; 52 weeks
  Liver volume, mean reduction from baseline: 23%
[2]; open-label arm
  average hepatic fat reduction corrected for reduced liver volume: 61%
